Experimental findings from EP2739628B1 are described below.

Where two headings read alike, the source gives them in different places.

For the data set the following is noted: rcm bond.

Under “from C=CCC(Nc1cc(NC(=O)OC)ccc1-c1ccnc([C@H](CC=C)NC(=O)OC(C)(C)C)c1)C(=O)OCC, Grubbs II”, `CCOC(=O)C1C/C=C/C[C@H](NC(=O)OC(C)(C)C)c2cc(ccn2)-c2ccc(NC(=O)OC)cc2N1` (stereo partly shown) registered a ring closure, yield of all isomers of 47%.
In turn, `COC(=O)Nc1ccc2c(c1)N[C@@H](C(=O)OC)CC=CC[C@H](NC(=O)OC(C)(C)C)c1nc-2cn1COCC[Si](C)(C)C` yielded a ring closure, yield of all isomers (from C=CC[C@H](NC(=O)OC(C)(C)C)c1nc(-c2ccc(NC(=O)OC)cc2N[C@H](CC=C)C(=O)OC)cn1COCC[Si](C)(C)C, Grubbs II, DCE, 40.0 mM, 120.0 °C, 0.33 h) of 23%.
In turn, `COC(=O)Nc1ccc2c(c1)NC(=O)C/C=C/C[C@H](NC(=O)OC(C)(C)C)c1cc-2ccn1` had a ring closure, yield of all isomers (from C=CCC(=O)Nc1cc(NC(=O)OC)ccc1-c1ccnc([C@H](CC=C)NC(=O)OC(C)(C)C)c1, Grubbs II, DCM, 3.99 mM, 45.0 °C, 19.0 h) of 26%.
Take `COC(=O)Nc1ccc2c(c1)NC(=O)[C@H](C)C=CC[C@H](NC(=O)OC(C)(C)C)c1nc-2cn1COCC[Si](C)(C)C`: the ring closure, yield of all isomers (from C=CC[C@H](NC(=O)OC(C)(C)C)c1nc(-c2ccc(NC(=O)OC)cc2NC(=O)[C@H](C)C=C)cn1COCC[Si](C)(C)C, Grubbs 2nd generation catalyst (with pTsOH monohydrate), dichloromethane, 9.73 mM, 40.0 °C, 21.5 h) worked out at 41%.
